Legend:
[1] = test system: adult osteoarthritic rats; experiment: osteoarthritis model (MIA-induced knee joint osteoarthritis, hind limb grip force); type: in vivo, rat; conditions: intraperitoneal injection; for effect on hind limb grip force: p<0.01, 20 days after MIA
Method: Unilateral knee joint osteoarthritis was induced in rats by a single intra-articular (i.a.) injection of sodium monoiodoacetate (MIA) (Sigma-Aldrich, St. Louis, Mo.) (3 mg in 50 μl sterile isotonic saline) into the right knee joint cavity under light (1-3%) isoflurane anesthesia.
Pain behavior was assessed by measurement of hind limb grip force (GF) in adult osteoarthritic rats. Following the unilateral injection of MIA (male Sprague Dawley, 325-350 g, tested at 20 days following MIA injection), a behavioral measure of activity-induced pain was carried out. Measurements of the peak hind limb grip force were conducted by recording the maximum compressive force (CFmax), in grams of force, exerted on a hind limb strain gauge setup, in a commercially available grip force measurement system (Columbus Instruments, Columbus, Ohio).
During testing, each rat was gently restrained by grasping it around its rib cage and then allowed to grasp the wire mesh frame attached to the strain gauge. The experimenter then moved the animal in a rostral-to-caudal direction until the grip was broken. Each rat was sequentially tested twice at approximately 2-3 min interval to obtain a raw mean grip force (CFmax). This raw mean grip force data was in turn converted to a maximum hindlimb cumulative compressive force (CFmax), as the grams of force/kg of body weight, for each animal.
For evaluating the compound effects, the hind limb grip force was conducted 20 days following the intra-articular injection of MIA. A group of age-matched naïve (not injected with MIA) animals was added as a comparator to the drug-dosed groups. The vehicle control response for each group of MIA-treated animals was defined as the 0% response (0% effect), whereas the naïve control group was defined as the normal response and as 100% effect. The % effects for each dose group was expressed as % return of response to normalcy, compared to the naïve group. That is, the % effect=(Treatment CFmax−Vehicle CFmax)/Vehicle CFmax]×100). All experiments evaluating drug effects in this model were conducted in a randomized blinded fashion. […]

Male Sprague Dawley rats = experiment: analgesic effect against neuropathic pain (L5/L6 spinal nerve ligation, von Frey mechanical allodynia); type: in vivo, rat; conditions: intraperitoneal injection
Method: Animals were prepared for testing, by use of a surgical procedure that induces neuropathic pain in one paw. Male Sprague Dawley rats were purchased from Charles River (Portage, Mich.). Prior to surgery, animals were housed in groups and maintained in a temperature-regulated environment. Following nerve ligation surgery, animals were housed in groups, and had access to food and water ad libitum.
The L5 and L6 spinal nerves of anesthetized rats were tightly ligated in a manner described previously (see Kim and Chung, Pain (1992) vol. 50 pp. 355-363). An incision was made on the dorsal portion of the hip and the muscle was blunt-dissected to reveal the spinal processes. […] The paw affected by the surgical procedure (the left paw) develops an allodynic response, a hypersensitivity to mechanical and other stimuli; neuropathic pain is assessed as an increased sensitivity in the surgically affected (left) allodynic paw compared to the control paw on the right side, and measured by comparing the response of the (left side) allodynic paw to the response of the unaffected right side control paw.
For the assessment of neuropathic pain, mechanical allodynia in the affected paw of animals that had undergone spinal nerve ligation was evaluated using testing with von Frey filaments. […]

mice = experiment: single trial 24-hour inhibitory avoidance model (memory); type: in vivo, mouse; conditions: 0.03 mg/kg, intraperitoneal injection, p<0.01 versus vehicle injected control mice
Text: The ability of compounds to treat diseases with deficits in memory and cognition such as Alzheimer's disease, dementia, age-related cognitive impairment, schizophrenia, and cognitive deficits of schizophrenia can be assessed in animal models. One model assessing the capability of a compound to enhance memory is the single trial 24-hour inhibitory avoidance model, described in Tietje et al. (Tietje, K. R., et al. “Preclinical Characterization of A-582941: A Novel α7 Neuronal Nicotinic Receptor Agonist with Broad Spectrum Cognition-Enhancing Properties” CNS Neuroscience and Therapeutics 2008 v14 pp. 65-82). In this mouse model, at a dose of 0.03 mg/kg, administered by intraperitoneal injection, the compound of Example 20 ((R)-2-(2-(3-(piperidin-1-yl)pyrrolidin-1-yl)benzo[d]thiazol-6-yl)pyridazin-3(2H)-one) achieved full efficacy, (p<0.01 versus vehicle injected control mice).

Compound: O=c1cccnn1-c1ccc2nc(N3CC[C@@H](N4CCCCC4)C3)sc2c1 [Example 20, (R)-2-(2-(3-(piperidin-1-yl)pyrrolidin-1-yl)benzo[d]thiazol-6-yl)pyridazin-3(2H)-one]
- effect on hind limb grip force ([1]; 1 mg/kg): 49%
- effect on hind limb grip force ([1]; 3 mg/kg): 69%
- adverse effects ([1]; osteoarthritis model): No complicating adverse effects were observed
- reduction in mechanical allodynia (Male Sprague Dawley rats; 3 mg/kg, p<0.01): 40%
- adverse effects (Male Sprague Dawley rats; neuropathic pain model): No complicating adverse effects were observed
- efficacy in inhibitory avoidance (memory enhancement) (mice): full efficacy
